The source of these data is patent US4268503A, “Antibacterial composition” (Fujisawa Pharmaceutical Co., Ltd., priority 1979, dated 1981).

What all share (type): cell-based
One assay relates to Klebsiella pneumoniae 8. The assay is described as follows: Test 8: synergistic activity in various combination ratios (isobologram, growth). Set-up: key: the symbol "+" means that the test microorganism grew; the symbol "-" means that the test microorganism did not grow. The protocol: Into a Nutrient broth (Difco) containing prescribed amounts of monosodium salt of 3-(N-formyl-N-hydroxyamino)-propylphosphonic acid and gentamicin sulfate, was inoculated 0.5% of 10-fold dilution of cultured broth of pathogen which was cultured overnight in Nutrient broth (Eiken). After the incubation was carried out at 37° C. for 18 hours, the growth of the test organism was observed.

The subject of assay [1] is Proteus mirabilis 1432-75. The assay is described as follows: Tests 2 and 3: MIC and synergism (FIC) in vitro. Conditions: Proteus mirabilis, 143275, 20 h. The protocol:
(§1) On a Nutrient agar (Difco) containing prescribed amount of each of monosodium salt of 3-(N-formyl-N-hydroxyamino)propylphosphonic acid, monosodium salt of ampicillin and a mixture of 3-(N-formyl-N-hydroxyamino)propylphosphonic acid and monosodium salt of ampicillin (1:1 by weight), there was streaked a loopful of cultured broth of each pathogen, which was cultured overnight in Nutrient broth (Difco), in a concentration of 10^5 cells/ml. After the incubation was carried out at 37° C. for 20 hours, MIC values were determined.
(§2) FIC values and FIC Index were calculated in substantially the same manner as described in Test 1.
(§3) Synergistic activity of 3-(N-formyl-N-hydroxyamino)propylphosphonic acid and cefazolin; that of 3-(N-formyl-N-hydroxyamino)propylphosphonic acid and ticarcillin; and that of 3-(N-formyl-N-hydroxyamino)propylphosphonic acid and nocardicin A were tested in vitro in substantially the same manner as described in the above Test 2.

Assay [2] deals with Serratia marcescens 1421-4. The assay is described as follows: Tests 2 and 3: MIC and synergism (FIC) in vitro. Conditions: 14214, S. marcescens 1421-4, Nutrient agar, 10^5 cells/ml, 37° C., 20 hours. The protocol:
as §1, §2, §3

In assay [3] the test system is Salmonella typhimurium 1406. Description: Tests 2 and 3: MIC and synergism (FIC) in vitro. Conditions: Salmonella enterica, 20 h. The protocol:
as §1, §2, §3

Assay [4] deals with Enterobacter cloacae 1401-4. The assay is described as follows: Tests 2 and 3: MIC and synergism (FIC) in vitro. Conditions: 14014, E. cloacae 1401-4, Nutrient agar, 10^5 cells/ml, 37° C., 20 hours. The protocol:
as §1, §2, §3

Assay [5] deals with Staphylococcus epidermidis 1601-1. Description: Tests 2 and 3: MIC and synergism (FIC) in vitro. Conditions: 16011, S. epidermidis 1601-1, Nutrient agar, 10^5 cells/ml, 37° C., 20 hours. The protocol:
as §1, §2, §3

The test system of assay [6] is Klebsiella pneumoniae NCTC 418. Description: Tests 2 and 3: MIC and synergism (FIC) in vitro. Conditions: NCTC418, 20 h. On the procedure: as §1, §2, §3

For `O=CN(O)CCCP(=O)(O)O` [3-(N-formyl-N-hydroxyamino)propylphosphonic acid], the “growth of test microorganism” value is listed as “+” in the assay on Klebsiella pneumoniae 8 (gentamicin sulfate 0, phosphonic acid 0.78 mcg/ml, 37° C., 18 hours); “+” in the assay on Klebsiella pneumoniae 8 (gentamicin sulfate 0, phosphonic acid 1.56 mcg/ml); “+” in the assay with Klebsiella pneumoniae 8 (gentamicin sulfate 0, phosphonic acid 3.13 mcg/ml); “+” in the assay with Klebsiella pneumoniae 8 (gentamicin sulfate 0, phosphonic acid 6.25 mcg/ml); “+” with Klebsiella pneumoniae 8 (gentamicin sulfate 0, phosphonic acid 12.5 mcg/ml); “-” with Klebsiella pneumoniae 8 (gentamicin sulfate 0, phosphonic acid 25 mcg/ml).

For `CC1(C)S[C@@H]2[C@H](NC(=O)[C@H](C(=O)O)c3ccsc3)C(=O)N2[C@H]1C(=O)O` [ticarcillin], the MIC is 0.78 µg/mL in assay [1]; 25 µg/mL in assay [2]; 1.56 µg/mL in assay [3]; 50 µg/mL in assay [4]; 3.13 µg/mL in assay [5]; 100 µg/mL in assay [6].

For gentamicin, the “growth of test microorganism” value was “+” in the assay on Klebsiella pneumoniae 8 (gentamicin sulfate 0.001, phosphonic acid 0 mcg/ml); “+” with Klebsiella pneumoniae 8 (gentamicin sulfate 0.003, phosphonic acid 0 mcg/ml); “+” in the assay on Klebsiella pneumoniae 8 (gentamicin sulfate 0.006, phosphonic acid 0 mcg/ml); “+” with Klebsiella pneumoniae 8 (gentamicin sulfate 0.01, phosphonic acid 0 mcg/ml); “+” with Klebsiella pneumoniae 8 (gentamicin sulfate 0.025, phosphonic acid 0 mcg/ml); “-” with Klebsiella pneumoniae 8 (gentamicin sulfate 0.05, phosphonic acid 0 mcg/ml).
